Publication PMC12300381, “Synthesis, Biological Evaluation, and In Silico Characterization of Novel Imidazothiadiazole–Chalcone Hybrids as Multi-Target Enzyme Inhibitors” (Pharmaceuticals, 2025)

Experiments:
Format in all cases: biochemical
Details in all cases: for IC50: Table 2
hCA I = hCA I (Homo sapiens, UniProt P00915); assay: hCA I esterase activity inhibition (Verpoorte method, p-nitrophenylacetate)
Experimental: (§1) The activities of the CA isoenzymes were measured in accordance with Verpoorte et al.’s previously described methodology. […] There was 400 µL of Tris–HCl buffer (pH 7.4), 360 µL of PNA (3.0 mM), 220 µL of H2O, and 20 µL of purified hCA isoenzyme in the reaction mixture. The identical cuvette was prepared without the enzyme in order to obtain a control measurement. The standard protein was bovine serum albumin.
(§2) To determine the IC50 values of the tested compounds, enzyme activity measurements were conducted at five to six different inhibitor concentrations. Percent activity values were calculated for each dose, taking into account the compounds’ molecular weights and dilution factors.
(§3) The IC50 study was completed prior to the Kᵢ determination. For the Kᵢ analysis, three selected concentrations of each inhibitor were used alongside a control (uninhibited) reaction.
(§4) Kᵢ values and standard deviations were calculated based on the type of inhibition (competitive or non-competitive), as inferred from the intersection pattern of the Lineweaver–Burk lines. These kinetic parameters allowed for further insight into the binding affinities and inhibition mechanisms of the compounds.

hCA II = hCA II (Homo sapiens, UniProt P00918); assay: hCA II esterase activity inhibition (Verpoorte method, p-nitrophenylacetate)
Experimental: as §1, §2
The IC50 study was completed prior to the Kᵢ determination. For the Kᵢ analysis, three selected concentrations of each inhibitor were used alongside a control (uninhibited) reaction. Enzyme activity data were converted to 1/V values and plotted against 1/[S] to generate Lineweaver–Burk plots.
as §4

AChE = target: T1, AChE (Electrophorus electricus, UniProt O42275); assay: biochemical
T1 construct: purchased Sigma-Aldrich Chemie, St. Louis, MO, USA C2888-500UN
T1 sequence (O42275 24-633): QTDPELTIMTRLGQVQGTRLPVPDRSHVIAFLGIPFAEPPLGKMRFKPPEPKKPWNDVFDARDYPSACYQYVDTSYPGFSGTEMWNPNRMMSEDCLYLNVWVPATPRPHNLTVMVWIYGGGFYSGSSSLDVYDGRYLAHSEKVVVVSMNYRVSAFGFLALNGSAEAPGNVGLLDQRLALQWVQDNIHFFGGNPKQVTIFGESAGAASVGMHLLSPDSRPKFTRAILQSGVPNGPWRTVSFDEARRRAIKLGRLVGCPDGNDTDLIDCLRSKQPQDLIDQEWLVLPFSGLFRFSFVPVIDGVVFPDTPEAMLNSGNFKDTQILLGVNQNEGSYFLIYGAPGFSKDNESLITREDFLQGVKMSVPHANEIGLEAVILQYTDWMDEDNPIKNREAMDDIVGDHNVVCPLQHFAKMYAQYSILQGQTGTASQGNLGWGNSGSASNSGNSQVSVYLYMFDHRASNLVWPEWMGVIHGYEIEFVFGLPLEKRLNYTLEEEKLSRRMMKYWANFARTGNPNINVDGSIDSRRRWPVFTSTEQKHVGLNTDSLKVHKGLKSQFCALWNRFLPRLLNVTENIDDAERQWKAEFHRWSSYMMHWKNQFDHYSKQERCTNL
Experimental: (§5) The previously published Ellman’s technique was used to measure the BChE and AChE activities. AChE (C2888-500UN) from Electrophorus electricus and BChE (C1057-1KU), extracted from equine serum, were both obtained from Sigma-Aldrich Chemie, St. Louis, MO, USA. The BChE/AChE activities were measured using 5,5′-dithiobis(2-nitrobenzoic acid) (DTNB) and butyrylthiocholine iodide (BChI)/[…] (AChI). In short, […] of the sample solutions with varying concentrations was dissolved in deionized water along with 100 µL of buffer (Tris–HCl, 1.0 M, pH 8.0). […] A fraction of DTNB (50 µL, 0.5 mM) was added following incubation. Finally, 50 µL of BChI/AChI (10/10 mM) was added to initiate the reaction. […] All enzymatic activity determination solutions, except AChE/BChE, were included in the negative control.
as §2, §3, §4

BChE = target: T2, BChE (Equus caballus, UniProt P81908); assay: biochemical
T2 construct: BChE (C1057-1KU), extracted from equine serum; purchased Sigma-Aldrich Chemie, St. Louis, MO, USA C1057-1KU; host or cells: equine serum
T2 sequence (P81908 whole entry): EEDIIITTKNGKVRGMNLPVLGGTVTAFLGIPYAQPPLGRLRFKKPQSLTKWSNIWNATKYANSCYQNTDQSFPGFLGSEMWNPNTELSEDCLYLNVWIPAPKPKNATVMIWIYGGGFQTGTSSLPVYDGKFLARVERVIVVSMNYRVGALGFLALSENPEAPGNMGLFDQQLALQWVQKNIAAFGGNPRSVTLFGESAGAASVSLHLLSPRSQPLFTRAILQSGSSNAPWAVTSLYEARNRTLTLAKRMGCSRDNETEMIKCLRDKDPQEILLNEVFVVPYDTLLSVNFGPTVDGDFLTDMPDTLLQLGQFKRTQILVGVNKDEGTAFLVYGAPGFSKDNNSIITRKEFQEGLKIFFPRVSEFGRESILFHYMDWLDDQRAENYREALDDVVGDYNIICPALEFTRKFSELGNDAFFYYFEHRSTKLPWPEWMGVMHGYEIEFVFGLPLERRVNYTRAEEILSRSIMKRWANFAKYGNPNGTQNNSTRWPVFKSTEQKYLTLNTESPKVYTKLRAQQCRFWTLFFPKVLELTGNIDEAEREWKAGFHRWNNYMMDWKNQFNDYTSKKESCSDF
Experimental: as §5, §2, §3, §4

Sequence of hCA I (P00915 whole entry): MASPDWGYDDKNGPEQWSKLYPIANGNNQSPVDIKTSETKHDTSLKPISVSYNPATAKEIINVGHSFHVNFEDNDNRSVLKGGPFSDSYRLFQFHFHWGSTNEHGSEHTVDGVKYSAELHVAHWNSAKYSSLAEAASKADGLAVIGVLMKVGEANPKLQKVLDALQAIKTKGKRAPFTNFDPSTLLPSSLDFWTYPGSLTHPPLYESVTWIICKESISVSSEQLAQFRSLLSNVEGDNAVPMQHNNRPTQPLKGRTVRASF

| Compound | Ki (hCA I; Lineweaver-Burk plots) [nM] | IC50 (hCA I) [nM] | Ki (hCA II; Lineweaver-Burk plots) [nM] | IC50 (hCA II) [nM] | Ki (AChE; Lineweaver-Burk plots) [nM] | inhibition type, AChE (AChE; Lineweaver-Burk plots) | IC50 (AChE) [nM] | Ki (BChE; Lineweaver-Burk plots) [nM] | inhibition type, BChE (BChE; Lineweaver-Burk plots) | IC50 (BChE) [nM] | inhibition type, hCA II (hCA II; Lineweaver-Burk plots) | inhibition type, hCA I (hCA I; Lineweaver-Burk plots) |
| --- | --- | --- | --- | --- | --- | --- | --- | --- | --- | --- | --- | --- |
| COc1ccc(C(=O)/C=C/c2c(-c3ccccc3)nc3sc(SCc4ccccc4)nn23)cc1 [8a, (E)-3-(2-(Benzylthio)-6-phenylimidazo[2,1-b][1,3,4]thiadiazol-5-yl)-1-(4-methoxyphenyl)prop-2-en-1-one] | 81.2 ± 4.36 | 73 | 49.3 ± 5.03 | 41.1 | 3.86 ± 0.2 | competitive | 4.36 | 1.01 ± 0.08 | competitive | 1.37 | – | – |
| O=C(/C=C/c1c(-c2ccccc2)nc2sc(SCc3ccccc3)nn12)c1ccc(Cl)cc1 [8b, (E)-3-(2-(Benzylthio)-6-phenylimidazo[2,1-b][1,3,4]thiadiazol-5-yl)-1-(4-chlorophenyl)prop-2-en-1-one] | 78 ± 5.48 | 64.4 | 52.5 ± 6.24 | 49.3 | 6.01 ± 0.35 | – | 6.77 | 1.7 ± 0.1 | – | 1.95 | – | – |
| COc1ccc(C(=O)/C=C/c2c(-c3ccccc3)nc3sc(SCc4ccc(F)cc4)nn23)cc1 [8c, (E)-3-(2-((4-Fluorobenzyl)thio)-6-phenylimidazo[2,1-b][1,3,4]thiadiazol-5-yl)-1-(4-methoxyphenyl)prop-2-en-1-one] | – | – | 36.1 ± 5.36 | 30.2 | 11.3 ± 1.02 | – | 13 | 1.56 ± 0.06 | – | 2.03 | non-competitive | – |
| O=C(/C=C/c1c(-c2ccccc2)nc2sc(SCc3ccc(F)cc3)nn12)c1ccc(Cl)cc1 [8d, (E)-1-(4-Chlorophenyl)-3-(2-((4-fluorobenzyl)thio)-6-phenylimidazo[2,1-b][1,3,4]thiadiazol-5-yl)prop-2-en-1-one] | 45.1 ± 3.91 | 39.1 | 39.6 ± 4.91 | 34.1 | 7.98 ± 0.6 | – | 9.3 | 1.78 ± 0.12 | – | 1.98 | – | non-competitive |
